Source: PubChem BioAssay AID200 (DTP/NCI, 2004)
Several values for one entry are separate records, joined by “and”; a condition that tells them apart may be missing. Identical values can stand only once. Inconclusive results and toxic doses are left out. Where a SMILES comes first, the peptide text is derived from it. The star is where a group is joined. Cbz = O=C(OCc1ccccc1)*; Bn = c1ccc(C*)cc1

Tested on: B6C3F1 mice, B16 melanoma ip, median survival T/C
Assay: NCI In Vivo Anticancer Drug Screen. Data for tumor model B16 Melanoma (intraperitoneal) in B6C3F1 mice
Details: endpoint: median survival time, schedule: Q01DX009 (ip), higher = longer survival
Method in brief: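 Transplantable tumor in mice; treated vs vehicle control groups; survival or tumor size measured; value = T/C ratio.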

[1] = dose: 1.0 mg/kg/injection, vehicle: Klucel (hydroxypropylcellulose) (HPC)
[2] = dose: 2.0 mg/kg/injection, vehicle: Klucel (hydroxypropylcellulose) (HPC)
[3] = dose: 12.5 mg/kg/injection, vehicle: saline
[4] = dose: 25.0 mg/kg/injection, vehicle: saline
[5] = dose: 50.0 mg/kg/injection, vehicle: saline
[6] = dose: 50.0 mg/kg/injection, vehicle: suspension in saline
[7] = dose: 100.0 mg/kg/injection, vehicle: saline
[8] = dose: 100.0 mg/kg/injection, vehicle: suspension in saline
[9] = dose: 200.0 mg/kg/injection, vehicle: saline
[10] = dose: 200.0 mg/kg/injection, vehicle: suspension in saline
[11] = dose: 25.0 mg/kg/injection, vehicle: Klucel (hydroxypropylcellulose) (HPC)
[12] = dose: 50.0 mg/kg/injection, vehicle: Klucel (hydroxypropylcellulose) (HPC)
[13] = dose: 100.0 mg/kg/injection, vehicle: Klucel (hydroxypropylcellulose) (HPC)
[14] = dose: 12.5 mg/kg/injection, vehicle: saline with Tween-80
[15] = dose: 25.0 mg/kg/injection, vehicle: saline with Tween-80
[16] = dose: 100.0 mg/kg/injection, vehicle: saline with Tween-80
[17] = dose: 200.0 mg/kg/injection, vehicle: Klucel (hydroxypropylcellulose) (HPC)
[18] = dose: 3.12 mg/kg/injection, vehicle: saline with Tween-80
[19] = dose: 6.25 mg/kg/injection, vehicle: saline with Tween-80
[20] = dose: 200.0 mg/kg/injection, vehicle: saline with Tween-80
[21] = dose: 400.0 mg/kg/injection, vehicle: saline with Tween-80
[22] = dose: 50.0 mg/kg/injection, vehicle: saline with Tween-80
[23] = dose: 1.25 mg/kg/injection, vehicle: Klucel (hydroxypropylcellulose) (HPC)
[24] = dose: 2.5 mg/kg/injection, vehicle: Klucel (hydroxypropylcellulose) (HPC)
[25] = dose: 5.0 mg/kg/injection, vehicle: Klucel (hydroxypropylcellulose) (HPC)

Q: COc1cc([C@@H]2c3cc4c(cc3[C@H](O)[C@H]3COC(=O)[C@H]23)OCO4)cc(OC)c1OC was tested. Which T/C (dose: 0.36 mg/kg/injection, vehicle: Klucel (hydroxypropylcellulose) (HPC)) did it give?
A: 116 % of control

Q: What about the T/C (dose: 0.6 mg/kg/injection, vehicle: Klucel (hydroxypropylcellulose) (HPC)) of the same compound?
A: 102 % of control

Q: What about the T/C [1] of the same compound?
A: 107 % of control

Q: And the T/C (dose: 1.67 mg/kg/injection, vehicle: Klucel (hydroxypropylcellulose) (HPC))?
A: 103 % of control

Q: And the T/C [2]?
A: 123 % of control

Q: And the T/C (dose: 2.78 mg/kg/injection, vehicle: Klucel (hydroxypropylcellulose) (HPC))?
A: 114 % of control

Q: What about the T/C (dose: 4.0 mg/kg/injection, vehicle: Klucel (hydroxypropylcellulose) (HPC)) of the same compound?
A: 114 % of control

Q: Which results are given for Cn1cnc([N+](=O)[O-])c1Sc1ncn[nH]1?
A: T/C [3]: 108 % of control; T/C (dose: 12.5 mg/kg/injection, vehicle: suspension in saline): 109 % of control; T/C [4]: 102 % of control; T/C (dose: 25.0 mg/kg/injection, vehicle: suspension in saline): 115 % of control; T/C [5]: 108 % of control; T/C [6]: 100 % of control; T/C [7]: 108 % of control; T/C [8]: 101 % of control; T/C [9]: 108 % of control; T/C [10]: 102 % of control

Q: For NC(=O)C(Cc1ccccc1)NC(=O)C(CSCc1ccccc1)NC(=O)OCc1ccccc1 (stereo not drawn) (Cbz-Cys(Bn)-Phe-NH2; configuration not given here), which T/C [11] is on record?
A: 91 % of control

Q: And the T/C [12]?
A: 109 % of control and 105 % of control

Q: And the T/C [13]?
A: 100 % of control and 103 % of control

Q: How did the T/C [14] turn out when O=C(N/N=C/c1c(O)ccc2ccccc12)C(=O)N/N=C/c1c(O)ccc2ccccc12 was run?
A: 110 % of control and 94 % of control and 107 % of control

Q: And the T/C [15]?
A: 111 % of control and 112 % of control and 118 % of control

Q: And the T/C [16]?
A: 94 % of control

Q: What does the source list for N[C@@H](Cc1ccc(O)c(O)c1)C(=O)O?
A: T/C [6]: 94 % of control; T/C [8]: 110 % of control; T/C [10]: 100 % of control; T/C (dose: 400.0 mg/kg/injection, vehicle: suspension in saline): 101 % of control and 104 % of control; T/C (dose: 800.0 mg/kg/injection, vehicle: suspension in saline): 93 % of control and 105 % of control; T/C (dose: 1200.0 mg/kg/injection, vehicle: suspension in saline): 97 % of control; T/C (dose: 1600.0 mg/kg/injection, vehicle: suspension in saline): 100 % of control

Q: Which results are given for CN(C)CCc1ccc(O)cc1?
A: T/C [7]: 89 % of control; T/C [9]: 92 % of control

Q: CC(C)(C)C1CCCCC1 was tested. Which T/C (dose: 12.5 mg/kg/injection, vehicle: Klucel (hydroxypropylcellulose) (HPC)) did it give?
A: 97 % of control

Q: What about the T/C [11] of the same compound?
A: 92 % of control

Q: And the T/C [12]?
A: 88 % of control

Q: How did the T/C [3] turn out when CCCNc1ncnc2c1cnn2C was run?
A: 91 % of control

Q: And the T/C [4]?
A: 93 % of control

Q: O=C(O)C1CCCN1C(=O)OCC1c2ccccc2-c2ccccc21 (stereo not drawn) was tested. Which T/C [13] did it give?
A: 107 % of control

Q: What about the T/C [17] of the same compound?
A: 104 % of control

Q: With O=C1NC(=O)NC(C(=O)O)N1 as the compound, how does the T/C (dose: 0.75 mg/kg/injection, vehicle: Klucel (hydroxypropylcellulose) (HPC)) read?
A: 108 % of control

Q: What about the T/C (dose: 1.5 mg/kg/injection, vehicle: Klucel (hydroxypropylcellulose) (HPC)) of the same compound?
A: 106 % of control

Q: What about the T/C (dose: 3.0 mg/kg/injection, vehicle: Klucel (hydroxypropylcellulose) (HPC)) of the same compound?
A: 116 % of control

Q: And the T/C (dose: 6.0 mg/kg/injection, vehicle: Klucel (hydroxypropylcellulose) (HPC))?
A: 106 % of control

Q: What about the T/C (dose: 12.0 mg/kg/injection, vehicle: Klucel (hydroxypropylcellulose) (HPC)) of the same compound?
A: 107 % of control

Q: CCCCCCCC(=O)[O][Hg][CH2]C1COC([CH2][Hg][O]C(=O)CCCCCCC)CO1 (stereo not drawn) was tested. Which T/C (dose: 1.56 mg/kg/injection, vehicle: saline with Tween-80) did it give?
A: 95 % of control and 102 % of control

Q: What about the T/C [18] of the same compound?
A: 96 % of control and 103 % of control

Q: And the T/C [19]?
A: 94 % of control and 101 % of control

Q: What about the T/C [14] of the same compound?
A: 93 % of control and 97 % of control

Q: What about the T/C [15] of the same compound?
A: 91 % of control

Q: Which T/C [17] does the source give for CCOC(=O)C(Cc1c[nH]c2ccccc12)NC(=O)C(Cc1ccccc1)NC(=O)C(Cc1cnc[nH]1)NC(=O)OCc1ccccc1 (stereo not drawn) (Cbz-His-Phe-Trp-OEt; configuration not given here) here?
A: 90 % of control

Q: Which T/C [14] does the source give for CN=S(=O)(OCCCCCOS(=O)(=NC)c1ccccc1)c1ccccc1 (stereo not drawn) here?
A: 112 % of control and 201 % of control

Q: What about the T/C [15] of the same compound?
A: 119 % of control

Q: What about the T/C [16] of the same compound?
A: 198 % of control

Q: What does the source list for C/C(=N\O)C(O)c1ccccc1 (stereo not drawn)?
A: T/C [16]: 98 % of control; T/C [20]: 107 % of control; T/C [21]: 92 % of control

Q: CNC(=O)OCc1c(COC(=O)NC)c(-c2ccc(F)cc2)n2c1CCC2 was tested. Which T/C (dose: 0.78 mg/kg/injection, vehicle: Klucel (hydroxypropylcellulose) (HPC)) did it give?
A: 114 % of control

Q: What about the T/C (dose: 1.56 mg/kg/injection, vehicle: Klucel (hydroxypropylcellulose) (HPC)) of the same compound?
A: 108 % of control

Q: And the T/C (dose: 3.12 mg/kg/injection, vehicle: Klucel (hydroxypropylcellulose) (HPC))?
A: 122 % of control

Q: And the T/C (dose: 6.25 mg/kg/injection, vehicle: Klucel (hydroxypropylcellulose) (HPC))?
A: 117 % of control

Q: CS(=O)(=O)c1ncc(Br)cn1 was tested. Which T/C [18] did it give?
A: 100 % of control

Q: What about the T/C (dose: 3.13 mg/kg/injection, vehicle: saline with Tween-80) of the same compound?
A: 101 % of control

Q: What about the T/C [19] of the same compound?
A: 99 % of control and 105 % of control

Q: And the T/C [14]?
A: 98 % of control and 106 % of control

Q: And the T/C [15]?
A: 96 % of control and 104 % of control

Q: And the T/C [22]?
A: 109 % of control and 97 % of control

Q: And the T/C [16]?
A: 100 % of control and 104 % of control

Q: With CC[C@]1(O)C[C@H](OC2CC(N(C)C)C(OC3CC(O)C(O)C(C)O3)C(C)O2)c2c(cc3c(c2O)C(=O)c2c(O)ccc(O)c2C3=O)[C@H]1C(=O)OC (stereo partly drawn) as the compound, how does the T/C (dose: 0.12 mg/kg/injection, vehicle: Klucel (hydroxypropylcellulose) (HPC)) read?
A: 106 % of control

Q: And the T/C (dose: 0.25 mg/kg/injection, vehicle: Klucel (hydroxypropylcellulose) (HPC))?
A: 115 % of control

Q: What about the T/C [1] of the same compound?
A: 177 % of control

Q: And the T/C [2]?
A: 191 % of control

Q: Which results are given for CN1C(=O)NC(c2ccc(Cl)cc2)(c2ccc(Cl)cc2)C1=O?
A: T/C [14]: 105 % of control; T/C [15]: 100 % of control; T/C [22]: 99 % of control; T/C [16]: 99 % of control; T/C [20]: 103 % of control; T/C [21]: 99 % of control

Q: Which T/C [11] does the source give for c1ccc(CN2COc3c(ccc4c3OCN(Cc3ccccc3)C4)C2)cc1 here?
A: 111 % of control

Q: What about the T/C [12] of the same compound?
A: 96 % of control

Q: And the T/C [13]?
A: 95 % of control

Q: For CS(=O)(=O)OCCN(CCOS(C)(=O)=O)c1ccc(C=O)cc1, which T/C [18] is on record?
A: 151 % of control

Q: And the T/C [19]?
A: 162 % of control

Q: And the T/C [14]?
A: 186 % of control

Q: What does the source list for C=C1C(C)C2C(Cc3ccccc3)NC(=O)C23C(OC(C)=O)C=CC(C)(O)C(=O)C(C)C/C=C/C3C1O (stereo not drawn)?
A: T/C (dose: 0.31 mg/kg/injection, vehicle: Klucel (hydroxypropylcellulose) (HPC)): 101 % of control; T/C (dose: 0.63 mg/kg/injection, vehicle: Klucel (hydroxypropylcellulose) (HPC)): 98 % of control; T/C [23]: 109 % of control; T/C [24]: 101 % of control; T/C [25]: 106 % of control

Q: What does the source list for Cc1c2ccc3ccccc3c2c[n+]2ccccc12?
A: T/C [23]: 104 % of control; T/C [24]: 100 % of control; T/C [25]: 112 % of control; T/C (dose: 10.0 mg/kg/injection, vehicle: Klucel (hydroxypropylcellulose) (HPC)): 96 % of control; T/C (dose: 20.0 mg/kg/injection, vehicle: Klucel (hydroxypropylcellulose) (HPC)): 100 % of control

Q: What does the source list for NC(=O)CCC(N)C(=O)O (stereo not drawn)?
A: T/C [4]: 105 % of control; T/C [5]: 108 % of control; T/C [7]: 103 % of control; T/C [9]: 100 % of control; T/C (dose: 400.0 mg/kg/injection, vehicle: saline): 108 % of control

Q: What does the source list for CC(=O)NCCCCCCNC(C)=O?
A: T/C [4]: 108 % of control; T/C [5]: 97 % of control; T/C [7]: 106 % of control; T/C [9]: 106 % of control; T/C (dose: 800.0 mg/kg/injection, vehicle: saline): 179 % of control
